Source: patent publication US20130165368A1, “ANTIMICROBIAL COMPOUNDS” (priority 2010, published 2013)
Read-outs that look alike come from different tables or passages of the source.

Key:
Assay type in all cases: cell-based
[1] = test system: Bacillus subtilis; test: MIC agar dilution, micro-organism 18 (9372); conditions: Bacillus subtilis 9372
Description: (§1) Throughout the period of testing the microbial strains were subcultured and incubated for 18-20 hours at 37° C. on a weekly basis. Horse blood agar plates were used to sustain the micro-organisms both prior to and throughout testing. The alkoxylated alkanols listed in Table II below were obtained (these are obtainable from Sigma-Aldrich Company Ltd, Dorset, England), each having a GC purity of at least 97%.
(§2) Molar equivalent concentrations were used to allow comparison between compounds of differing molecular mass. Due to weighing difficulties, any compound in solid form was melted in a water bath prior to dilution. To make ten-times strength concentrations, which takes into account agar dilution, 0.0352 mmol of each compound was weighed into plastic universal bottles and 4 mL of sterile distilled water (SDW) was added. To produce a homogenous emulsion the universals were vortexed; once achieved the emulsions were serial diluted by adding 2 mL to 2 mL of SDW.
(§3) Myristyl alcohol and lauryl alcohol were re-weighed and dissolved in 25 μL of the polar solvent 1-methyl-2-pyrrolidone (M6762; Sigma-Aldrich) in sterile glass universals due to an inability to achieve an even suspension. To maintain an even emulsion in the presence of SDW 37.5 μL of the non-ionic detergent Tween 20 (P1379, Sigma-Aldrich) was also added. 3.9375 mL of SDW was added to these, to create a 4 mL volume; they were vortexed and diluted as before.
(§4) For every 100 mL of Isosensitest agar (IST) (CM0471; Oxoid, Basingstoke, England), 3.1 g of the IST powder was added to 100 mL SDW (as per manufacturer's instructions) and sterilised for 15 minutes at 121° C. Once sterilised, the molten agar was cooled to 50° C. in a water-bath. Subsequently 4.8 g of CCEY powder (BC2160; Bioconnections, Wetherby, England), also known as Brazier's medium, was added to 100 mL SDW for every 100 mL of agar needed. This was then sterilised for 15 minutes at 121° C. Once sterilised the molten agar was cooled to 50° C. in a water-bath and 4 mL of egg-yolk emulsion (S2073; TCS Biosciences Ltd, Buckingham, United Kingdom) and 1 mL of lysed defibrinated horse blood (HB035; TCS Biosciences Ltd, Buckingham, United Kingdom) were also added for every 100 mL needed. Horse blood lysis is achieved by dilution to half concentration with SDW; when fully lysed the mixture will turn dark red in colour.
(§5) 18 mL agar was added to each universal and then poured into sterile Petri dishes. This step creates a 1/10 dilution resulting in agar plates of the required strength. Control plates for each set of strains were created by adding 18 mL of agar to 2 mL of SDW.
(§6) Suspensions of each bacterial species were prepared with a density equal to that of a 0.5 McFarland standard using a densitometer. All suspensions were made using sterile distilled water and fresh 18-20 hour cultures. As a 0.5 McFarland standard contains 1.5×10^8 CFU/mL and the multipoint inoculators applies 1 μL spots of liquid, each bacterial suspension was diluted 1/15 (20 μL suspension to 280 μL sterile distilled water).
(§7) Bacterial suspensions were prepared from fresh 18-24 hour cultures as previously described. 1 μL of each strain was inoculated onto all 100 agar plates containing a different chemical concentration and the 2 control plates. This was done using a multipoint inoculator which inoculates 20 strains per plate. All plates were incubated for 22 hours at 37° C. in aerobic conditions.
(§8) Each plate was examined for bacterial growth after 22 and 48 hours, with each being incubated in between examinations. A positive result was recorded as growth of ≧10 colonies. A negative result was recorded as growth of <10 colonies as this is equivalent to 99.9% inhibition. The lowest concentration of chemical that inhibited growth was recorded as the MIC. The results are recorded in Table IV below, where the numbers are quoted in mmol/L. […]

[2] = test system: Enterobacter cloacae; test: MIC agar dilution, micro-organism 4 (11936); conditions: Enterobacter cloacae 11936
Description: as §1, §2, §3, §4, §5, §6, §7
(§9) Each plate was examined for bacterial growth after 22 and 48 hours, with each being incubated in between examinations. A positive result was recorded as growth of ≧10 colonies. A negative result was recorded as growth of <10 colonies as this is equivalent to 99.9% inhibition. The lowest concentration of chemical that inhibited growth was recorded as the MIC. The results are recorded in Table IV below, where the numbers are quoted in mmol/L.
(§10) Further experiments have also been conducted to determine the MIC of a number of other compositions as follows. […]

[3] = test system: Candida glabrata; test: MIC agar dilution, micro-organism 20 (3943); conditions: Candida glabrata 3943
Description: as §1, §2, §3, §4, §5, §6, §7, §8

[4] = test system: Pseudomonas aeruginosa; test: MIC agar dilution, micro-organism 7 (10662); conditions: Pseudomonas aeruginosa 10662
Description: as §1, §2, §3, §4, §5, §6, §7, §9, §10

[5] = test system: Klebsiella pneumoniae; test: MIC agar dilution, micro-organism 2 (9528); conditions: Klebsiella pneumoniae 9528
Description: as §1, §2, §3, §4, §5, §6, §7, §9, §10

[6] = test system: Burkholderia cepacia; test: MIC agar dilution, micro-organism 9 (1222); conditions: Burkholderia cepacia 1222
Description: as §1, §2, §3, §4, §5, §6, §7, §9, §10

[7] = test system: Acinetobacter baumannii; test: MIC agar dilution, micro-organism 10 (19606); conditions: Acinetobacter baumannii 19606
Description: as §1, §2, §3, §4, §5, §6, §7, §9, §10

[8] = test system: Steptococcus pyogenes; test: MIC agar dilution, micro-organism 11 (8306); conditions: Steptococcus pyogenes 8306
Description: as §1, §2, §3, §4, §5, §6, §7, §8

[9] = test system: Staphylococcus aureus; test: MIC agar dilution, micro-organism 13 (6571); conditions: Staphylococcus aureus 6571
Description: as §1, §2, §3, §4, §5, §6, §7, §8

[10] = test system: Candida albicans; test: MIC agar dilution, micro-organism 19 (90028); conditions: Candida albicans 90028
Description: as §1, §2, §3, §4, §5, §6, §7, §8

[11] = test system: Enterococcus faecalis; test: MIC agar dilution, micro-organism 17 (775); conditions: Enterococcus faecalis 775
Description: as §1, §2, §3, §4, §5, §6, §7, §8

[12] = test system: Serratia marcescens; test: MIC agar dilution, micro-organism 5 (10211); conditions: Serratia marcescens 10211
Description: as §1, §2, §3, §4, §5, §6, §7, §9, §10

[13] = test system: Enterococcus faecium; test: MIC agar dilution, micro-organism 16 (7171); conditions: Enterococcus faecium 7171
Description: as §1, §2, §3, §4, §5, §6, §7, §8

[14] = test system: Staphylococcus epidermidis; test: MIC agar dilution, micro-organism 14 (11047); conditions: Staphylococcus epidermidis 11047
Description: as §1, §2, §3, §4, §5, §6, §7, §8

[15] = test system: Escherichia coli; test: MIC agar dilution, micro-organism 1 (10418); conditions: Escherichia coli 10418
Description: as §1, §2, §3, §4, §5, §6, §7, §8

[16] = test system: Staphylococcus aureus (MRSA); test: MIC agar dilution, micro-organism 12 (11939); conditions: Staphylococcus aureus (MRSA) 11939
Description: as §1, §2, §3, §4, §5, §6, §7, §8

[17] = test system: Listeria monocytogenes; test: MIC agar dilution, micro-organism 15 (11994); conditions: Listeria monocytogenes 11994
Description: as §1, §2, §3, §4, §5, §6, §7, §8

[18] = test system: Yersinia enterocolitica; test: MIC agar dilution, micro-organism 8 (11176); conditions: Yersinia enterocolitica 11176
Description: as §1, §2, §3, §4, §5, §6, §7, §9, §10

[19] = test system: Providencia rettgeri; test: MIC agar dilution, micro-organism 3 (7475); conditions: Providencia rettgeri 7475
Description: as §1, §2, §3, §4, §5, §6, §7, §8

[20] = test system: Salmonella typhimurium; test: MIC agar dilution, micro-organism 6 (74); conditions: Salmonella typhimurium 74
Description: as §1, §2, §3, §4, §5, §6, §7, §9, §10

[21] = Nakaseomyces glabratus, 48 h, 48 hrs, read-out: MIC
[22] = Staphylococcus aureus, 48 h, 48 hrs, read-out: MIC
[23] = Staphylococcus aureus, MRSA, 48 h, 48 hrs, read-out: MIC
[24] = Salmonella enterica, 48 hrs, read-out: MIC

Measured: MIC

CCCCCCCCCCCCCCCCOCCO [C16E1, ceteth-1]
>880 µM: [1]; 22 hrs | [1]; 48 hrs | [2]; 22 hrs | [2]; 48 hrs | [4]; 22 hrs | [4]; 48 hrs | [5]; 22 hrs | [5]; 48 hrs | [6]; 22 hrs | [6]; 48 hrs | [7]; 22 hrs | [7]; 48 hrs | [8]; 22 hrs | [8]; 48 hrs | [9]; 22 hrs | [9]; 48 hrs | [10]; 22 hrs | [10]; 48 hrs | [11]; 22 hrs | [11]; 48 hrs | [12]; 22 hrs | [12]; 48 hrs | [13]; 22 hrs | [13]; 48 hrs | [14]; 22 hrs | [14]; 48 hrs | [15]; 22 hrs | [15]; 48 hrs | [16]; 22 hrs | [16]; 48 hrs | [17]; 22 hrs | [17]; 48 hrs | [18]; 22 hrs | [18]; 48 hrs | [19]; 22 hrs | [19]; 48 hrs | [20]; 22 hrs | [20]; 48 hrs
880 µM: [3]; 22 hrs | [3]; 48 hrs

OCCCCCCCCCCCCO [D, 1,12-dodecanediol, reference compound]
> 880 µM: [1]; 48 hrs, read-out: MIC | [2]; 48 hrs, read-out: MIC | [3]; [21] | [4]; 48 hrs, read-out: MIC | [5]; 48 hrs, read-out: MIC | [6]; 48 hrs, read-out: MIC | [7]; 48 hrs, read-out: MIC | [8]; 48 h, 48 hrs, read-out: MIC | [9]; [22] | [10]; 48 hrs, read-out: MIC | [11]; 48 hrs, read-out: MIC | [12]; 48 hrs, read-out: MIC | [13]; 48 hrs, read-out: MIC | [14]; 48 hrs, read-out: MIC | [15]; 48 hrs, read-out: MIC | [16]; [23] | [17]; 48 hrs, read-out: MIC | [18]; 48 hrs, read-out: MIC | [19]; 48 hrs, read-out: MIC | [20]; [24]

OCCOCCOCCCCCCCCCCCCOCCOCCO [DEG2, 3,6,19,22-tetraoxatetracosane-1,24-diol]
> 880 µM: [1]; 48 hrs, read-out: MIC | [2]; 48 hrs, read-out: MIC | [3]; [21] | [4]; 48 hrs, read-out: MIC | [6]; 48 hrs, read-out: MIC | [7]; 48 hrs, read-out: MIC | [9]; [22] | [10]; 48 hrs, read-out: MIC | [11]; 48 hrs, read-out: MIC | [12]; 48 hrs, read-out: MIC | [13]; 48 hrs, read-out: MIC | [14]; 48 hrs, read-out: MIC | [15]; 48 hrs, read-out: MIC | [16]; [23] | [17]; 48 hrs, read-out: MIC | [18]; 48 hrs, read-out: MIC | [19]; 48 hrs, read-out: MIC | [20]; [24]
880 µM: [5]; 48 hrs, read-out: MIC | [8]; 48 h, 48 hrs, read-out: MIC
